The results in this text go back to US9540363B2, “Solid oral formulations and crystalline forms of an inhibitor of apoptosis protein” (Novartis AG, priority 2009, dated 2017).

Data set [1] is described as follows: Heating of the hemihydrate form (dehydration and form conversion). The class given is physicochemical. To be noted: upon heating. The protocol:
Form B can be obtained by heating the hemihydrate Form HA above 100° C. over a period of time to remove the water completely, by equilibrating the hemihydrate Form HA in heptane at 50° C., or by cooling crystallization from methyl isobutyl ketone.
(§1) The crystalline forms HA, A, B, C, and D obtained in Examples 11-16 are analyzed by various standard methods: XPRD, DSC, TGA, Microscopy. Water sorption and desorption is also examined.

A short description of data set [2]: Water sorption and desorption (hygroscopicity) of crystalline forms. The class given is physicochemical. As to conditions: for hygroscopicity: crystalline solid form; for maximum water uptake: at 25° C. up to 95% RH.
Text: The crystalline forms of compound of Formula (I), its salts and solvates can be characterized by a number of methods, including but not limited to, Powder X-Ray diffraction (PXRD), simulated powder X-ray patterns (Yin. S.; Scaringe, R. P.; DiMarco, J.; Galella, M. and Gougoutas, J. Z., American Pharmaceutical Review, 2003, 6, 2, 80), Differential scanning calorimetry (DSC) experiments, Solid-state C-13 NMR measurements, (W. L. Earl and D. L. VanderHart, J. Magn. Reson., 1982, 48, 35-54), Raman spectroscopy, Infra-red spectroscopy, Moisture sorption isotherms (VTI—variable temperature isotherms), and hot stage techniques.
as §1

With `CN[C@@H](C)C(=O)N[C@H](C(=O)N1CCC[C@H]1c1nc(C(=O)c2ccc(F)cc2)cs1)C1CCCCC1` [Form HA, (S)—N—((S)-1-cyclohexyl-2-{(S)-2-[4-(4-fluoro-benzoyl)-thiazol-2-yl]-pyrrolidin-1-yl}-2-oxo-ethyl)-2-methylamino-propionamide], the “heating temperature at which the form loses water and converts to Form B” value in data set [1] was “above 100 °C”. In data set [2] (between 10% relative humidity (RH) and 70% RH), the water content was approximately 1.7%. The hygroscopicity result in data set [2] is “slightly hygroscopic”. For the same compound, the “additional moisture taken up” value in data set [2] (from 70% RH to 95% RH) is recorded as approximately 0.4%.
Take `CN[C@@H](C)C(=O)N[C@H](C(=O)N1CCC[C@H]1c1nc(C(=O)c2ccc(F)cc2)cs1)C1CCCCC1` [Form A, (S)—N—((S)-1-cyclohexyl-2-{(S)-2-[4-(4-fluoro-benzoyl)-thiazol-2-yl]-pyrrolidin-1-yl}-2-oxo-ethyl)-2-methylamino-propionamide]: in data set [2], the maximum water uptake result was “about 0.8%” and the hygroscopicity result is on record as “slightly hygroscopic”.
In the same order, the values of `CN[C@@H](C)C(=O)N[C@H](C(=O)N1CCC[C@H]1c1nc(C(=O)c2ccc(F)cc2)cs1)C1CCCCC1` [Form C, (S)—N—((S)-1-cyclohexyl-2-{(S)-2-[4-(4-fluoro-benzoyl)-thiazol-2-yl]-pyrrolidin-1-yl}-2-oxo-ethyl)-2-methylamino-propionamide] are “less than 0.2%” and “nonhygroscopic”.
Regarding `CN[C@@H](C)C(=O)N[C@H](C(=O)N1CCC[C@H]1c1nc(C(=O)c2ccc(F)cc2)cs1)C1CCCCC1` [Form D, (S)—N—((S)-1-cyclohexyl-2-{(S)-2-[4-(4-fluoro-benzoyl)-thiazol-2-yl]-pyrrolidin-1-yl}-2-oxo-ethyl)-2-methylamino-propionamide], in data set [2], the maximum water uptake result is reported as “less than 0.5%” and the hygroscopicity result is “slightly hygroscopic”.
With `CN[C@@H](C)C(=O)N[C@H](C(=O)N1CCC[C@H]1c1nc(C(=O)c2ccc(F)cc2)cs1)C1CCCCC1` [Form B, (S)—N—((S)-1-cyclohexyl-2-{(S)-2-[4-(4-fluoro-benzoyl)-thiazol-2-yl]-pyrrolidin-1-yl}-2-oxo-ethyl)-2-methylamino-propionamide], in data set [2], the maximum water uptake result is on record as “about 0.5%” and the hygroscopicity entry is on record as “slightly hygroscopic”.
